System: Sprague-Dawley rats
Experiment: Clinical chemistry
Assay type: in vivo, Rattus norvegicus
Design: key to Cholesterol, Dose response / Triglyserides, Dose response / Glucose, Dose response / Albumin, Dose response / K, Dose response / Total bilirubin, Dose response: D: significant dose response (for results, see Table 2); T: significant trend
Conditions: females
Procedure: Spectrophotometric methods were used for the determination of serum total calcium, cholesterol, creatinine, glucose, triglycerides and urea. Serum sodium, potassium and chloride concentrations were measured directly by ion selective electrodes. The analyses were performed by a clinical chemistry analyzer (Konelab 30i, ThermoFisher Scientific, Vantaa, Finland). Plasma lactate dehydrogenase (LD) activity was measured according to the recommendations of the International Federation of Clinical Chemistry (IFCC 1994/I) using Konelab 60i clinical chemistry analyzer. Methods and results for liver related parameters (serum alanine aminotransferase [ALT] activity, alkaline phosphatase [ALP] activity, albumin, total protein and total bilirubin are reported separately.
Data were also analyzed using the BMD method, which is based on dose-response modeling of the full data set using a nested family of exponential and Hill models. The analyses were done on data of males and females combined, using sex as a covariate. […] In that case, different Critical Effect Doses (CEDs) and CEDs at the lowest bound of the confidence interval (CED-L) were generated for each sex. If no difference between sexes is detected, a CED and CED-Ls for the combined data is generated. However, this was also done if the curve fits are close, and separate analyses for males and females were then performed manually. CEDs and CED-Ls were calculated at the predefined Critical Effect Size (CES) of 5% (EFSA standard) or 10%.

## Clc1cc(Cl)c(-c2cc(Cl)c(Cl)c(Cl)c2Cl)cc1Cl [PCB 180, 2,2′,3′,4,4′,5,5′-heptachlorobiphenyl]
Total dose 0-1700 mg/kg bw
  Total bilirubin, Dose response: T
Total dose 3 mg/kg bw
  Albumin: 33.8 g/L
  Cholesterol: 3.11 mmol/L
  Cl: 97.1 mmol/L
  Creatinine: 51.7 µmol/L
  Glucose: 13.7 mmol/L
  K: 5.59 mmol/L
  Na: 142.1 mmol/L
  Total Ca: 3.40 mmol/L
  Total bilirubin: 1.59 µmol/L
  Triglyserides: 0.91 mmol/L
  Urea: 9.9 mmol/L
Total dose 10 mg/kg bw
  Albumin: 33.9 g/L
  Cholesterol: 3.35 mmol/L
  Cl: 97.2 mmol/L
  Creatinine: 53.8 µmol/L
  Glucose: 14.4 mmol/L
  K: 5.70 mmol/L
  Na: 143.6 mmol/L
  Total Ca: 3.42 mmol/L
  Total bilirubin: 1.66 µmol/L
  Triglyserides: 0.85 mmol/L
  Urea: 9.4 mmol/L
Total dose 30 mg/kg bw
  Albumin: 32.7 g/L
  Cholesterol: 3.05 mmol/L
  Cl: 97.3 mmol/L
  Creatinine: 48.6 µmol/L
  Glucose: 13.6 mmol/L
  K: 5.55 mmol/L
  Na: 142.7 mmol/L
  Total Ca: 3.46 mmol/L
  Total bilirubin: 1.40 µmol/L
  Triglyserides: 1.19 mmol/L
  Urea: 9.5 mmol/L
Total dose 100 mg/kg bw
  Albumin: 33.1 g/L
  Cholesterol: 3.54 mmol/L
  Cl: 97.0 mmol/L
  Creatinine: 51.3 µmol/L
  Glucose: 13.8 mmol/L
  K: 5.75 mmol/L
  Na: 142.5 mmol/L
  Total Ca: 3.44 mmol/L
  Total bilirubin: 1.56 µmol/L
  Triglyserides: 0.89 mmol/L
  Urea: 8.6 mmol/L
Total dose 300 mg/kg bw
  Albumin: 33.5 g/L
  Cholesterol: 3.52 mmol/L
  Cl: 96.8 mmol/L
  Creatinine: 47.8 µmol/L
  Glucose: 14.0 mmol/L
  K: 5.54 mmol/L
  Na: 142.6 mmol/L
  Total Ca: 3.56 mmol/L
  Total bilirubin: 1.40 µmol/L
  Triglyserides: 1.12 mmol/L
  Urea: 10.1 mmol/L
Total dose 1000 mg/kg bw
  Albumin: 33.0 g/L
  Cholesterol: 4.16 mmol/L
  Cl: 97.2 mmol/L
  Creatinine: 51.9 µmol/L
  Glucose: 12.6 mmol/L
  K: 5.43 mmol/L
  Na: 142.7 mmol/L
  Total Ca: 3.40 mmol/L
  Total bilirubin: 1.43 µmol/L
  Triglyserides: 0.89 mmol/L
  Urea: 9.3 mmol/L
Total dose 1700 mg/kg bw
  Albumin: 33.3 g/L
  Cholesterol: 4.94 mmol/L
  Cl: 97.7 mmol/L
